Data taken from patent publication US11964990B2, “1,3,4,7-tetrahydro-2H-pyrrolo[3′,2′:5,6]pyrido[2,3-b][1,4]oxazepine bcl-2 inhibitors” (AbbVie Inc., priority 2022, dated 2024).
Where “and” joins values, the source holds several entries; their conditions need not be identical. Equal values may be shown once. Read-outs that look alike come from different tables or passages of the source.

How the values were obtained:
RS4;11 cells = assay: Cell viability assay (CellTiter-Glo) in RS4;11 cell line; format: cell-based; conditions: 24 hours, 10% Human Serum, 50% decrease in cell viability
Summary of the method: (§1)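 RS4;11 or Molt-4 cells (3000 per well) in RPMI 1640 with 10% human serum treated with compound for 24 h, 5% CO2. Viability measured by CellTiter-Glo as percent of control; EC50 from sigmoidal dose-response curves.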

Molt-4 cells = assay: Cell viability counter screen assay (CellTiter-Glo) in Molt-4 cells; format: cell-based; conditions: 24 hours, 10% Human Serum, 50% decrease in cell viability
Summary of the method: as §1

[1] = Bioavailability study: pharmacokinetics after single intravenous or oral dose in mouse; format: in vivo; conditions: for Vd: read-out: VSS
Method: Studies were conducted to evaluate the pharmacokinetic profiles of Example 25 herein and Example 2 in WO 2019/040550 after single intravenous or oral dose in mouse. CD-1 mice (male) were obtained from Charles River Laboratories (Wilmington, MA).
The pharmacokinetics of Example 25 herein and Example 2 in WO 2019/040550 were evaluated following single 1 mg/kg intravenous or oral doses in mouse. Example 25 herein and Example 2 in WO 2019/040550 were prepared as a solution in DMSO: Tween 80: PEG-400: Dextrose 5% in Water (5:5:20:70, v/v) for the IV and oral dose mouse studies. The intravenous dose was administered as a slow bolus to the penile vein under isoflurane anesthesia. The oral doses were administrated by gavage. Serial blood samples were obtained […], 0.25, 0.5, 1.0, 4, 6, 9, 12, 24, 32 and 48 hours post dosing and […]. Plasma was separated by centrifugation and stored frozen (<−15° C.) until analysis.
HPLC-MS/MS bioanalytical methods were utilized for the quantitation of Example 25 herein and Example 2 in WO 2019/040550 concentration in plasma. The analytical methods used protein precipitation to extract compound from plasma. All samples were combined with a minimum two volume equivalents of organic solvent containing internal standard, vortexed and then centrifuged to pellet the proteins. Supernatants were used for subsequent analysis by liquid chromatography-tandem mass spectrometry (LC-MS/MS). Studies involving quantitative analysis employed spiked standards in plasma that were processed simultaneously with the samples.
Analytes were separated using reverse phase chromatography on a C8 or C18 column prior to analysis on an API5500™ (or higher) mass spectrometer with a Turbo-Ion Spray source. Peak areas were determined using Sciex Analyst™ 1.6 (or higher) software or Sound Analytics DiscoveryQuant™ 2.0 (or higher) software. Actual concentrations (when required) were calculated by regression analysis of the peak area ratio (parent/internal standard) of the spiked standards versus concentrations.
Peak plasma concentrations (Cm) and the time to peak plasma concentration (Tmax) were determined directly from the plasma concentration data for each animal. The compound plasma concentration data were submitted to multi-exponential curve fitting using WinNonlin software. The area under the plasma concentration-time curve from 0 to t hours after dosing (AUC0-t, t=time of the last measurable plasma concentration) was calculated using the linear trapezoidal rule. The residual area extrapolated to infinity, determined as the final measured plasma concentration (Ct) divided by the terminal plasma elimination rate constant (β), was added to the AUC0-t to produce the total area under the curve (AUC0-∞). The apparent total plasma clearance (CLp) was calculated by dividing the administered dose by the AUC0-∞. Half-life (t1/2) was determined with the following calculation: t1/2=ln (2)/elimination rate constant. The initial volume of distribution (Vc) was calculated as the dose divided by the extrapolated concentration at time=0 (C0). The volume of distribution at steady state, Vss, was estimated as a product of the total plasma clearance (CLp) and the mean residence time (MRT); the terminal-phase volume of distribution, Vβ, was derived from the total plasma clearance value (CLp) divided by the terminal plasma elimination rate constant (β). Oral bioavailability (F) was calculated as the dose-normalized AUC0-∞ (AUC0-∞/D) from the oral dose divided by the corresponding dose normalized AUC0-∞ from intravenous dosing.

Bcl-2 protein = Bcl-2 protein (Homo sapiens (Human), UniProt P10415); assay: TR-FRET binding assay, Bcl-2 (F-Bak peptide probe); conditions: Bak BH3 peptide probe, Wang's equation
Method: (§2) Determination of the utility of compounds having Formula (I) or Formula (II) as binders to and inhibitors of anti-apoptotic Bcl-2 proteins was performed using the Time Resolved-Fluorescence Resonance Energy Transfer (TR-FRET) Assay. Tb-anti-GST antibody was purchased from Invitrogen (Catalog No. PV4216).
A Bcl-2 human encoding sequence was cloned into a pET41A vector (Novagen). The protein was expressed with E. coli. BL21(DE3)-T1R strain in OETB autoinduction medium at 30° C. for 25 hours. The cell pellets were resuspended in lysis buffer (50 mM Tris, 140 mM NaCl, 1 mM DTT, 10% Glycerol, 2 mM MgCl2, pH 7.3) and lysed with Microfluidizer. The Bcl-2 protein in clarified cell-lysate was purified with affinity chromatography (GST and Ni-NTA). The eluate was loaded onto a Superdex 75 column and further purified with a Q Sepharose column. The protein was purified on a phenyl hydrophobic interaction column and dialyzed in the storage buffer (50 mM Tris, 50 mM NaCl, 2 mM DTT, pH 7.5) and stored at −80° C.
(§3) […] of a protein (Bcl-2 or Bcl-xL)/probe/antibody mixture pre-equilibrated for one hour in assay buffer was added to each well at final concentrations listed in Table 6 below.
(§4) The samples were then mixed on a shaker for 1 minute and equilibrated for an additional 3 hours at room temperature. For each assay plate, a probe/antibody and protein/antibody/probe mixture were included as a negative and a positive control, respectively. Fluorescence was measured on the Envision (Perkin Elmer) using a 340/35 nm excitation filter and 520/525 (F-Bak) and 495/510 nm (Tb-labeled anti-GST antibody) emission filters. Inhibition constants (Ki) were determined using Wang's equation (Wang FEBS Lett. 1995, 360, 111-114). The TR-FRET assay can be performed in the presence of varying concentrations of human serum (HS) to determine apparent half maximal inhibitory concentration (IC50) after HS protein binding.
(§5) Inhibition constants were determined using Wang's equation (Wang FEBS Lett. 1995, 360:111-4).

Bcl-xL protein = Bcl-xL protein (Homo sapiens (Human), UniProt Q07817); assay: TR-FRET binding assay, Bcl-xL (F-Bak peptide probe); conditions: Bak BH3 peptide probe, Wang's equation
Method: as §2
A human Bcl-xL encoding sequence was cloned into a pET41A vector. The protein was expressed with E. coli. BL21(DE3)-T1R strain in OETB autoinduction medium at 30° C. for 25 hours. The cell pellets were resuspended in lysis buffer (50 mM Tris, 140 mM NaCl, 1 mM DTT, 10% Glycerol, 0.1% Triton X-100, pH 7.5) and lysed with Microfluidizer. The Bcl-xL protein in clarified cell-lysate was purified with GST affinity chromatography. The eluate was dialyzed in the storage buffer (1×PBS, 10% Glycerol, 2 mM DTT, 1 mM Sodium Azide, pH 7.4) and stored at −80° C.
as §3, §4, §5

[2] = male, CD-1, mouse, plasma, iv, 1 mg/kg, IV 1 mg/kg, individual animal
[3] = male, CD-1, mouse, plasma, iv, 1 mg/kg, IV 1 mg/kg, mean
[4] = male, CD-1, mouse, plasma, po, 1 mg/kg, PO 1 mg/kg, individual animal
[5] = male, CD-1, mouse, plasma, po, 1 mg/kg, PO 1 mg/kg, mean

Sequence of Bcl-xL protein (Q07817 other isoform, or with tags, fused parts or gaps): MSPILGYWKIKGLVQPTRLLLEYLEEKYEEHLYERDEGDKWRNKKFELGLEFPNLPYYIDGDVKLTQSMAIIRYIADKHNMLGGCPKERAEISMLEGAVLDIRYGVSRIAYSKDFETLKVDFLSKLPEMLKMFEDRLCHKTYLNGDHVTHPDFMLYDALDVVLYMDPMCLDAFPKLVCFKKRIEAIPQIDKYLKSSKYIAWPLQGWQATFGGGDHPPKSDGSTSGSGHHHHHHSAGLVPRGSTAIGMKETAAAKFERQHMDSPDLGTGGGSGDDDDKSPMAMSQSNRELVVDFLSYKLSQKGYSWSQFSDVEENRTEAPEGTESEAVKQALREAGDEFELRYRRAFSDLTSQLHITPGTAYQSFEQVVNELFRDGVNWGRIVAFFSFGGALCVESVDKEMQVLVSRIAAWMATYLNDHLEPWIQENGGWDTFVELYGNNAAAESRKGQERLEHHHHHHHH
Sequence of Bcl-2 protein (P10415 other isoform, or with tags, fused parts or gaps): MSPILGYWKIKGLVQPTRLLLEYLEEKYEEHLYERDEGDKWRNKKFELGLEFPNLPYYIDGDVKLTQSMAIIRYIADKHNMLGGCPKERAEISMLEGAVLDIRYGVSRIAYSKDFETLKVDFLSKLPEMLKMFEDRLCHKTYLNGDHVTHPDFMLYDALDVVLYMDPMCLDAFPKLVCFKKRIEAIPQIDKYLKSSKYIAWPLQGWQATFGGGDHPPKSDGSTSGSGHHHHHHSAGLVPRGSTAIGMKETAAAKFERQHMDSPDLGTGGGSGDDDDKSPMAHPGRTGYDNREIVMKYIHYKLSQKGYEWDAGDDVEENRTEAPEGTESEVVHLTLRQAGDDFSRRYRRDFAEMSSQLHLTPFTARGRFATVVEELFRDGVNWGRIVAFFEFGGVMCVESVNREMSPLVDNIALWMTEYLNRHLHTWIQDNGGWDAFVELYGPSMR

CO[C@@H]1CC[C@@H](CNc2ccc(S(=O)(=O)NC(=O)c3ccc(N4CCN5CC6=C(c7ccc(Cl)cc7)CC(C)(C)C[C@H]6OCCCOC[C@@H]5C4)cc3N3CCCOc4nc5[nH]ccc5cc43)cc2[N+](=O)[O-])OC1 [Example 25, 4-((4aS,10aR)-14-(4-chlorophenyl)-12,12-dimethyl-1,2,4a,5,8,9,10a,11,13,15-decahydro-7H,12H-benzo[f]pyrazino[2,1-c][1,8]dioxa[4]azacycloundecin-3(4H)-yl)-2-(3,4-dihydro-2H-pyrrolo[3′,2′:5,6]pyrido[2,3-b][1,4]oxazepin-1(7H)-yl)-N-((4-((((2S,5R)-5-methoxytetrahydro-2H-pyran-2-yl)methyl)amino)-3-nitrophenyl)sulfonyl)benzamide]
EC50 (RS4;11 cells): 1.79 nM | EC50 (Molt-4 cells): 1280 nM | Vβ ([1]; IV 1 mg/kg, plasma, individual animal): 0.95 L/kg and 1.0 L/kg and 0.90 L/kg | Vβ ([1]; IV 1 mg/kg, plasma, mean): 0.96 L/kg | Tmax ([1]; male, CD-1, PO 1 mg/kg, plasma, individual animal): 4 h | AUC [1, 2]: 15800 ng·h/mL | C0 [1, 2]: 4010 ng/mL | MRT [1, 2]: 12 h | half-life [1, 2]: 10 h | AUC [1, 3]: 13300 ng·h/mL | C0 [1, 3]: 4160 ng/mL | MRT [1, 3]: 11 h | clearance ([1]; male, CD-1, mouse, plasma, iv, 1 mg/kg, IV 1 mg/kg, plasma, individual animal, read-out: CLP (converted)): 1.05 mL/min/kg | Vd ([1]; male, CD-1, mouse, plasma, iv, 1 mg/kg, IV 1 mg/kg, plasma, individual animal): 0.78 L/kg | Vd ([1]; male, CD-1, mouse, plasma, iv, 1 mg/kg, IV 1 mg/kg, plasma, mean): 0.82 L/kg | AUC [1, 4]: 3580 ng·h/mL | Cmax [1, 4]: 210 ng/mL | half-life [1, 4]: 7.5 h | AUC [1, 5]: 4130 ng·h/mL | Cmax [1, 5]: 254 ng/mL | bioavailability ([1]; male, CD-1, plasma, PO 1 mg/kg vs IV 1 mg/kg, mean, read-out: F (oral bioavailability)): 31%

CC1(C)CC(c2ccc(Cl)cc2)=C2CN3CCN(c4ccc(C(=O)NS(=O)(=O)c5ccc(OC[C@H]6CC[C@H](N7CCOCC7)CC6)c(Cl)c5)c(N5CCCOc6nc7[nH]ccc7cc65)c4)C[C@H]3COCCCO[C@@H]2C1 [Example 38, N-((3-chloro-4-(((1r,4r)-4-morpholinocyclohexyl)methoxy)phenyl)sulfonyl)-4-((4aS,10aR)-14-(4-chlorophenyl)-12,12-dimethyl-1,2,4a,5,8,9,10a,11,13,15-decahydro-7H,12H-benzo[f]pyrazino[2,1-c][1,8]dioxa[4]azacycloundecin-3(4H)-yl)-2-(3,4-dihydro-2H-pyrrolo[3′,2′:5,6]pyrido[2,3-b][1,4]oxazepin-1(7H)-yl)benzamide]
EC50 (RS4;11 cells): 26 nM | EC50 (Molt-4 cells): 2340 nM | Ki (Bcl-2 protein): 0.108 nM | Ki (Bcl-xL protein): 5.62 nM

CC1(C)CC(c2ccc(Cl)cc2)=C2CN3CCN(c4ccc(C(=O)NS(=O)(=O)c5cnc(OC[C@H]6CC[C@](C)(O)CC6)c(Cl)c5)c(N5CCCOc6nc7[nH]ccc7cc65)c4)C[C@H]3COCCCO[C@@H]2C1 [Example 42, N-((5-chloro-6-(((1r,4r)-4-hydroxy-4-methylcyclohexyl)methoxy)pyridin-3-yl)sulfonyl)-4-((4aS,10aR)-14-(4-chlorophenyl)-12,12-dimethyl-1,2,4a,5,8,9,10a,11,13,15-decahydro-7H,12H-benzo[f]pyrazino[2,1-c][1,8]dioxa[4]azacycloundecin-3(4H)-yl)-2-(3,4-dihydro-2H-pyrrolo[3′,2′:5,6]pyrido[2,3-h][1,4]oxazepin-1(7H)-yl)benzamide]
EC50 (RS4;11 cells): 11.3 nM | EC50 (Molt-4 cells): > 10000 nM | Ki (Bcl-2 protein): 0.159 nM | Ki (Bcl-xL protein): 25.1 nM

CC1(C)CC(c2ccc(Cl)cc2)=C2CN3CCN(c4ccc(C(=O)NS(=O)(=O)c5ccc(OC[C@H]6CC[C@](C)(O)CC6)c(Cl)c5)c(N5CCCOc6nc7[nH]ccc7cc65)c4)C[C@H]3COCCCO[C@@H]2C1 [Example 43, N-((3-chloro-4-(((1r,4r)-4-hydroxy-4-methylcyclohexyl)methoxy)phenyl)sulfonyl)-4-((4aS,10aR)-14-(4-chlorophenyl)-12,12-dimethyl-1,2,4a,5,8,9,10a,11,13,15-decahydro-7H,12H-benzo[f]pyrazino[2,1-c][1,8]dioxa[4]azacycloundecin-3(4H)-yl)-2-(3,4-dihydro-2H-pyrrolo[3′,2′:5,6]pyrido[2,3-b][1,4]oxazepin-1(7H)-yl)benzamide]
EC50 (RS4;11 cells): 17.7 nM | EC50 (Molt-4 cells): > 10000 nM | Ki (Bcl-2 protein): 0.0853 nM | Ki (Bcl-xL protein): 29.7 nM

CC1(C)CC(c2ccc(Cl)cc2)=C2CN3CCN(c4ccc(C(=O)NS(=O)(=O)c5ccc(OC[C@H]6CC[C@](C)(O)CC6)c([N+](=O)[O-])c5)c(N5CCCOc6nc7[nH]ccc7cc65)c4)C[C@H]3COCCCO[C@@H]2C1 [Example 44, 4-((4aS,10aR)-14-(4-chlorophenyl)-12,12-dimethyl-1,2,4a,5,8,9,10a,11,13,15-decahydro-7H,12H-benzo[f]pyrazino[2,1-c][1,8]dioxa[4]azacycloundecin-3(4H)-yl)-2-(3,4-dihydro-2H-pyrrolo[3′,2′:5,6]pyrido[2,3-b][1,4]oxazepin-1(7H)-yl)-N-((4-(((1r,4r)-4-hydroxy-4-methylcyclohexyl)methoxy)-3-nitrophenyl)sulfonyl)benzamide]
EC50 (RS4;11 cells): 4.39 nM | EC50 (Molt-4 cells): 2270 nM | Ki (Bcl-2 protein): 0.0898 nM | Ki (Bcl-xL protein): 7.98 nM
